Measurements from patent publication US9024017B2, “Octahydro-cyclopentapyrrolyl antagonists of CCR2” (Janssen Pharmaceutica NV, priority 2012, dated 2015).

Molecular target: T1, CCR2 (Homo sapiens, UniProt P41597)
T1 construct: host or cells: THP-1 (human monocytic cell line)
Assay: MCP-1 Receptor Binding Assay in THP-1 Cells
Settings: read-out: MCP1B_v3 IC50
In short: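 Human monocytic THP-1 cells incubated 2 h at 30 °C with 0.5 nM 125I-MCP-1 and varying concentrations of test compound or unlabelled MCP-1. Cells filter-harvested and counted by scintillation; blank subtracted, compared with vehicle; nonspecific binding with 1 μM cold MCP-1.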

T1 sequence (P41597 whole entry): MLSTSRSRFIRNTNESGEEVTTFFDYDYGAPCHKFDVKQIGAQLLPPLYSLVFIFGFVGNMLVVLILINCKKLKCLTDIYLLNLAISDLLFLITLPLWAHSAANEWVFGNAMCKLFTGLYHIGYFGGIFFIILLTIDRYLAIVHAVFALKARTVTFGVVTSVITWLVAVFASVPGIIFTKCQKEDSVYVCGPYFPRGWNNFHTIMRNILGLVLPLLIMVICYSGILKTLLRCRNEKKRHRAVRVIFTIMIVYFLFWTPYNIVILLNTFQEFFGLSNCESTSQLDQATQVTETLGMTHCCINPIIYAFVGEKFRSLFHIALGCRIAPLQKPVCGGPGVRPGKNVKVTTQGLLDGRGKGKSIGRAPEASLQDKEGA

Row | IC50 [nM] | SMILES
1 | 560 | COC1COCCC1N[C@@H]1C[C@H]2CN(C(=O)OCC(C)(C)C)C[C@@]2(C(=O)N2CCc3ncc(C(F)(F)F)cc3C2)C1 (relative stereo) [Example 36, (3aR,5R,6aR)-Neopentyl 5-(((3S*,4S*)-3-methoxytetrahydro-2H-pyran-4-yl)amino)-3a-(3-(trifluoromethyl)-5,6,7,8-tetrahydro-1,6-naphthyridine-6-carbonyl)hexahydro-cyclopenta[c]pyrrole-2(1H)-carboxylate]
2 | 40 | C=CCOC(=O)N1C[C@@H]2C[C@@H](NC3CCOCC3OC)C[C@]2(C(=O)N2CCc3ncc(C(F)(F)F)cc3C2)C1 (relative stereo) [Example 38, (3aR,5R,6aR)-Allyl 5-(((3S*,4S*)-3-methoxytetrahydro-2H-pyran-4-yl)amino)-3a-(3-(trifluoromethyl)-5,6,7,8-tetrahydro-1,6-naphthyridine-6-carbonyl)hexahydrocyclopenta[c]pyrrole-2(1H)-carboxylate]
3 | 2800 | COC1COCCC1N[C@@H]1C[C@H]2CN(CC(=O)N(C)C)C[C@@]2(C(=O)N2CCc3ncc(C(F)(F)F)cc3C2)C1 (relative stereo) [Example 106, 2-((3aR,5R,6aR)-5-(((3S*,4S*)-3-Methoxytetrahydro-2H-pyran-4-yl)amino)-3a-(3-(trifluoromethyl)-5,6,7,8-tetrahydro-1,6-naphthyridine-6-carbonyl)hexahydrocyclopenta[c]pyrrol-2(1H)-yl)-N,N-dimethylacetamide]
4 | 170 | NC(=O)N1C[C@@H]2C[C@@H](NC3CCOCC3)C[C@]2(C(=O)N2CCc3ncc(C(F)(F)F)cc3C2)C1 [Example 8]
5 | 420 | COC1COCCC1N[C@@H]1C[C@H]2CN(C(=O)N3CCOCC3)C[C@@]2(C(=O)N2CCc3ncc(C(F)(F)F)cc3C2)C1 (relative stereo) [Example 22, ((3aR,5R,6aR)-5-(((3S*,4S*)-3-Methoxytetrahydro-2H-pyran-4-yl)amino)-2-(morpholine-4-carbonyl)octahydrocyclopenta[c]pyrrol-3a-yl)(3-(trifluoromethyl)-7,8-dihydro-1,6-naphthyridin-6(5H)-yl)methanone]
6 | 140 | COC1COCCC1N[C@@H]1C[C@H]2CN(C(=O)OCCC(F)(F)F)C[C@@]2(C(=O)N2CCc3ncc(C(F)(F)F)cc3C2)C1 (relative stereo) [Example 51, (3aR,5R,6aR)-3,3,3-Trifluoropropyl 5-(((3S*,4S*)-3-methoxytetrahydro-2H-pyran-4-yl)amino)-3a-(3-(trifluoromethyl)-5,6,7,8-tetrahydro-1,6-naphthyridine-6-carbonyl)hexahydrocyclo-penta[c]pyrrole-2(1H)-carboxylate]
7 | 120 | COC1COCCC1N[C@@H]1C[C@H]2CN(C(=O)OCc3ccccc3)C[C@@]2(C(=O)N2CCc3ncc(C(F)(F)F)cc3C2)C1 (relative stereo) [Example 56, (3aR,5R,6aR)-Benzyl 5-(((3S*,4S*)-3-methoxytetrahydro-2H-pyran-4-yl)amino)-3a-(3-(trifluoromethyl)-5,6,7,8-tetrahydro-1,6-naphthyridine-6-carbonyl)hexahydrocyclopenta[c]pyrrole-2(1H)-carboxylate]
8 | 60 | COC1COCCC1N[C@@H]1C[C@H]2CN(C(N)=O)C[C@@]2(C(=O)N2CCc3ncc(C(F)(F)F)cc3C2)C1 (relative stereo) [Example 2, (3aR,5R,6aR)-5-(((3S*,4S*)-(3-Methoxytetrahydro-2H-pyran-4-yl)amino)-3a-(3-(trifluoromethyl)-5,6,7,8-tetrahydro-1,6-naphthyridine-6-carbonyl)hexahydrocyclopenta[c]pyrrole-2(1H)-carboxamide]
9 | 30 | CO[C@@H]1COCC[C@@H]1N[C@@H]1C[C@H]2CN(C(N)=O)C[C@@]2(C(=O)N2CCc3ncc(C(F)(F)F)cc3C2)C1 [Example 3]
10 | 30 | COC1COCCC1N[C@@H]1C[C@H]2CN(C(=O)OCCC(C)(C)O)C[C@@]2(C(=O)N2CCc3ccc(OC(F)(F)F)cc3C2)C1 (relative stereo) [Example 50, (3aR,5R,6aR)-3-Hydroxy-3-methylbutyl 5-(((3S*,4S*)-3-methoxytetrahydro-2H-pyran-4-yl)amino)-3a-(7-(trifluoromethoxy)-1,2,3,4-tetrahydroisoquinoline-2-carbonyl)hexahydrocyclopenta[c]pyrrole-2(1H)-carboxylate]
11 | 10 | COC1COCCC1N[C@@H]1C[C@H]2CN(C(=O)OCCNC(C)=O)C[C@@]2(C(=O)N2CCc3ccc(C(F)(F)F)cc3C2)C1 (relative stereo) [Example 55, (3aR,5R,6aR)-2-Acetamidoethyl 5-(((3S*,4S*)-3-methoxytetrahydro-2H-pyran-4-yl)amino)-3a-(7-(trifluoromethyl)-1,2,3,4-tetrahydroisoquinoline-2-carbonyl)hexahydrocyclopenta[c]pyrrole-2(1H)-carboxylate]
12 | 10 | COC1COCCC1N[C@@H]1C[C@H]2CN(C(=O)OCCN3CCOCC3)C[C@@]2(C(=O)N2CCc3ncc(C(F)(F)F)cc3C2)C1 (relative stereo) [Example 39, (3aR,5R,6aR)-2-Morpholinoethyl 5-(((3S*,4S*)-3-methoxytetrahydro-2H-pyran-4-yl)amino)-3a-(3-(trifluoromethyl)-5,6,7,8-tetrahydro-1,6-naphthyridine-6-carbonyl)hexahydrocyclopenta[c]pyrrole-2(1H)-carboxylate]
13 | 2030 | CNC(=S)N(C1CCOCC1OC)[C@@H]1C[C@H]2CN(C(=O)OCc3ccccc3)C[C@@]2(C(=O)N2CCc3ncc(C(F)(F)F)cc3C2)C1 (relative stereo) [Example 57, (3aR,5R,6aR)-Benzyl 5-(1-((3S*,4S*)-3-methoxytetrahydro-2H-pyran-4-yl)-3-methylthioureido)-3a-(3-(trifluoromethyl)-5,6,7,8-tetrahydro-1,6-naphthyridine-6-carbonyl)hexahydrocyclopenta[c]pyrrole-2(1H)-carboxylate]
14 | 370 | COC1COCCC1N[C@@H]1C[C@H]2CN(C=O)C[C@@]2(C(=O)N2CCc3ncc(C(F)(F)F)cc3C2)C1 (relative stereo) [Example 114, (3aR,5R,6aR)-5-(((3S*,4S*)-3-Methoxytetrahydro-2H-pyran-4-yl)amino)-3a-(3-(trifluoromethyl)-5,6,7,8-tetrahydro-1,6-naphthyridine-6-carbonyl)hexahydrocyclopenta-[c]pyrrole-2(1H)-carbaldehyde]
15 | 50 | COC1COCCC1N[C@@H]1C[C@H]2CN(C(=O)n3ccnc3)C[C@@]2(C(=O)N2CCc3ccc(C(F)(F)F)cc3C2)C1 (relative stereo) [Example 24, ((3aR,5R,6aR)-2-(1H-Imidazole-1-carbonyl)-5-(((3S*,4S*)-3-methoxytetrahydro-2H-pyran-4-yl)amino)octahydrocyclopenta[c]pyrrol-3a-yl)(7-(trifluoromethyl)-3,4-dihydroisoquinolin-2(1H)-yl)methanone]
16 | 5400 | COC1COCCC1N[C@@H]1C[C@H]2CN(C#N)C[C@@]2(C(=O)N2CCc3ncc(C(F)(F)F)cc3C2)C1 (relative stereo) [Example 117, (3aR,5R,6aR)-5-(((3S*,4S*)-3-Methoxytetrahydro-2H-pyran-4-yl)amino)-3a-(3-(trifluoromethyl)-5,6,7,8-tetrahydro-1,6-naphthyridine-6-carbonyl)hexahydrocyclopenta[c]pyrrole-2(1H)-carbonitrile]
